US20090036499A1, “FLY CONTROL METHOD” (priority 2007, published 2009)

Tested on: Adult L. serricata (blowflies)
Experiment: Test A: adult blowflies on blood agar containing test compound, scored by number of dead flies
Type: in vivo
Details: 4 flies in test
Procedure: • Adult L. serricata (blowflies): Adult flies are placed on beds of blood agar (in individual test wells; 4 flies per well) in which test compound, (3-bromo-N-[4-chloro-2-methyl-6-[(methylamino)carbonyl]phenyl]-1-(3-chloro-2-pyridinyl)-1H-pyrazole-5-carboxamide), was dissolved/suspended prior to hardening of agar. Flies can take up test compound by both ingestion and contact. Assays are scored by number of dead flies at 2 hours, 4 hours, and 24 hours.

Row | SMILES | Number dead flies at 2 hours (1 ppm in blood agar) | Number dead flies at 4 hours (1 ppm in blood agar) | Number dead flies at 24 hours (1 ppm in blood agar) | Number dead flies at 2 hours (10 ppm in blood agar) | Number dead flies at 4 hours (10 ppm in blood agar) | Number dead flies at 24 hours (10 ppm in blood agar) | Number dead flies at 2 hours (25 ppm in blood agar) | Number dead flies at 4 hours (25 ppm in blood agar) | Number dead flies at 24 hours (25 ppm in blood agar) | Number dead flies at 2 hours (50 ppm in blood agar) | Number dead flies at 4 hours (50 ppm in blood agar) | Number dead flies at 24 hours (50 ppm in blood agar) | Number dead flies at 2 hours (100 ppm in blood agar) | Number dead flies at 4 hours (100 ppm in blood agar) | Number dead flies at 24 hours (100 ppm in blood agar)
1 | CCOP(=S)(OCC)Oc1nc(Cl)c(Cl)cc1Cl [Chloropyriphos, O,O-diethyl-O-3,5,6-trichloro-2-pyridyl-phosphorothioate] | 0 | 1 | 4 | 1 | 4 | 4 | 3 | 4 | 4 | 4 | 4 | 4 | 4 | 4 | 4
2 | CNC(=O)c1cc(Cl)cc(C)c1NC(=O)c1cc(Br)nn1-c1ncccc1Cl [Test Compound, 3-bromo-N-[4-chloro-2-methyl-6-[(methylamino)carbonyl]phenyl]-1-(3-chloro-2-pyridinyl)-1H-pyrazole-5-carboxamide] | 0 | 0 | 0 | 0 | 0 | 1 | 0 | 0 | 2 | 0 | 0 | 2 | 0 | 0 | 3
